pEC50: −log10 of the molar value. Values belong to the compound of their own block, whether it stands above or below them. Calls of active or inactive are those of the source. The rule behind the calls is not given here.
Columns and labels:
[1] = target: T1, Sphingosine 1-phosphate receptor 3 (Homo sapiens, UniProt Q99500); assay: Agonist activity at human S1P3R expressed in CHO cells by Ca(2+) mobilization assay relative to S1P; assay type: functional, cell-based; parameters: concentration or dose not given beside the values
T1 sequence (Q99500 whole entry): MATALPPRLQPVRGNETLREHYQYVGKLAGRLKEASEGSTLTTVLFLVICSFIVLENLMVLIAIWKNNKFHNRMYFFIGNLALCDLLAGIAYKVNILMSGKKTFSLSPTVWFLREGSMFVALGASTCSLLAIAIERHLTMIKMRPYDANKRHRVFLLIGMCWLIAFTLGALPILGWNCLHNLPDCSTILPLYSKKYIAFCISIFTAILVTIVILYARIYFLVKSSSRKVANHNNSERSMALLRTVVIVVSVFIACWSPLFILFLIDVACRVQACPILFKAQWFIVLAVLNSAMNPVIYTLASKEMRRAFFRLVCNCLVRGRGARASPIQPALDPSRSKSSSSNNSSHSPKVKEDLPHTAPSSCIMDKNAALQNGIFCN

[2] = target: T2, Sphingosine 1-phosphate receptor 1 (Homo sapiens, UniProt P21453); assay: Induction of human GFP-tagged chimeric S1P1R internalization in human U2Os cells by fluorescence microscopy; assay type: cell-based
T2 sequence (P21453 whole entry): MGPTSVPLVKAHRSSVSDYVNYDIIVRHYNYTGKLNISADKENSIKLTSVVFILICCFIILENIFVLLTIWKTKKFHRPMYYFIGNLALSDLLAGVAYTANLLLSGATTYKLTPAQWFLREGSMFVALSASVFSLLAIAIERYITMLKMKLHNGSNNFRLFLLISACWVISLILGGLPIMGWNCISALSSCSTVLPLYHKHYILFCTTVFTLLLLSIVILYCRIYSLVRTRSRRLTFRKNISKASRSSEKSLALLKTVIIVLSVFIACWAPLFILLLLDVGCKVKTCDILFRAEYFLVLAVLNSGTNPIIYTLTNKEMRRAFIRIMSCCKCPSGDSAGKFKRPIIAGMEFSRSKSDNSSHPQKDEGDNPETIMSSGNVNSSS

[3] = target: T1, Sphingosine 1-phosphate receptor 3; assay: Agonist activity at human S1P3R expressed in CHO cells by Ca(2+) mobilization assay; assay type: functional, cell-based
[4] = target: T2, Sphingosine 1-phosphate receptor 1; assay: Induction of human GFP-tagged chimeric S1P1R internalization in human U2Os cells by fluorescence microscopy relative to 1-(4-(6-benzylbenzofuran-2-yl)-3-fluorobenzyl)azetidine-3-carboxylic acid; assay type: cell-based
[5] = target: T3, Sphingosine 1-phosphate receptor 5 (Homo sapiens, UniProt Q9H228); assay: Agonist activity at human S1P5R expressed in CHO cells by Ca(2+) mobilization assay; assay type: functional, cell-based
T3 sequence (Q9H228 whole entry): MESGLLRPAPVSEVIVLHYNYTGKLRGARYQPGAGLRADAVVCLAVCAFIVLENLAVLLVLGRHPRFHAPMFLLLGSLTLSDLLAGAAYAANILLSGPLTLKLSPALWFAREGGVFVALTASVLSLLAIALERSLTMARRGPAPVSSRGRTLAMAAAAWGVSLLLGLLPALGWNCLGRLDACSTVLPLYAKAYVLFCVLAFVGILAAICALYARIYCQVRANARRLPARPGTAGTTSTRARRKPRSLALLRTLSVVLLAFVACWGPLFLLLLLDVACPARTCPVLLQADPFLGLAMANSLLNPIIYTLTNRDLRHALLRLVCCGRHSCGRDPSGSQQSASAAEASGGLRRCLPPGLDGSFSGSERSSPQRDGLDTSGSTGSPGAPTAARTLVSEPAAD

[6] = target: T4, Sphingosine 1-phosphate receptor 4 (Homo sapiens) (UniProt O95977); assay: Agonist activity at human S1P4R expressed in CHO cells by Ca(2+) mobilization assay; assay type: functional, cell-based
T4 sequence (whole entry): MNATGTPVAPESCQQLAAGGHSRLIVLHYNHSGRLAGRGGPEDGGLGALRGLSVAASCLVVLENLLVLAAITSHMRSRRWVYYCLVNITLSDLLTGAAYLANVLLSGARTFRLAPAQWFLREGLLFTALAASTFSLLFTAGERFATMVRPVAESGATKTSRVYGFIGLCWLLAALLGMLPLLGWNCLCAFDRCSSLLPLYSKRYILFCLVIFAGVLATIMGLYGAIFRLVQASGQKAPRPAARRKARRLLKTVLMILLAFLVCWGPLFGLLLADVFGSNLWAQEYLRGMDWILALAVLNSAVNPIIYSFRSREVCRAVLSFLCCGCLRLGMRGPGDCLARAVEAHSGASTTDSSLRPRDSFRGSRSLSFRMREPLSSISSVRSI

Rattus norvegicus [7] = assay: Toxicity in telemetered Sprague-Dawley rat assessed as effect on heart rate at 10 mg/kg, po; assay type: organism-based; parameters: dose 10 mg/kg, route oral; conditions: in vivo
[8] = Volume of distribution at steady state in Beagle dog at 1 mg/kg, iv or 1 mg/kg, po; assay type: ADME, organism-based, Canis lupus familiaris; conditions: in vivo, read-out: Vdss
[9] = target: Voltage-gated inwardly rectifying potassium channel KCNH2 (Homo sapiens, UniProt Q12809); assay: Inhibition of human ERG at 2.3 uM by patch-clamp method
Voltage-gated inwardly rectifying potassium channel KCNH2, sequence (Q12809 whole entry): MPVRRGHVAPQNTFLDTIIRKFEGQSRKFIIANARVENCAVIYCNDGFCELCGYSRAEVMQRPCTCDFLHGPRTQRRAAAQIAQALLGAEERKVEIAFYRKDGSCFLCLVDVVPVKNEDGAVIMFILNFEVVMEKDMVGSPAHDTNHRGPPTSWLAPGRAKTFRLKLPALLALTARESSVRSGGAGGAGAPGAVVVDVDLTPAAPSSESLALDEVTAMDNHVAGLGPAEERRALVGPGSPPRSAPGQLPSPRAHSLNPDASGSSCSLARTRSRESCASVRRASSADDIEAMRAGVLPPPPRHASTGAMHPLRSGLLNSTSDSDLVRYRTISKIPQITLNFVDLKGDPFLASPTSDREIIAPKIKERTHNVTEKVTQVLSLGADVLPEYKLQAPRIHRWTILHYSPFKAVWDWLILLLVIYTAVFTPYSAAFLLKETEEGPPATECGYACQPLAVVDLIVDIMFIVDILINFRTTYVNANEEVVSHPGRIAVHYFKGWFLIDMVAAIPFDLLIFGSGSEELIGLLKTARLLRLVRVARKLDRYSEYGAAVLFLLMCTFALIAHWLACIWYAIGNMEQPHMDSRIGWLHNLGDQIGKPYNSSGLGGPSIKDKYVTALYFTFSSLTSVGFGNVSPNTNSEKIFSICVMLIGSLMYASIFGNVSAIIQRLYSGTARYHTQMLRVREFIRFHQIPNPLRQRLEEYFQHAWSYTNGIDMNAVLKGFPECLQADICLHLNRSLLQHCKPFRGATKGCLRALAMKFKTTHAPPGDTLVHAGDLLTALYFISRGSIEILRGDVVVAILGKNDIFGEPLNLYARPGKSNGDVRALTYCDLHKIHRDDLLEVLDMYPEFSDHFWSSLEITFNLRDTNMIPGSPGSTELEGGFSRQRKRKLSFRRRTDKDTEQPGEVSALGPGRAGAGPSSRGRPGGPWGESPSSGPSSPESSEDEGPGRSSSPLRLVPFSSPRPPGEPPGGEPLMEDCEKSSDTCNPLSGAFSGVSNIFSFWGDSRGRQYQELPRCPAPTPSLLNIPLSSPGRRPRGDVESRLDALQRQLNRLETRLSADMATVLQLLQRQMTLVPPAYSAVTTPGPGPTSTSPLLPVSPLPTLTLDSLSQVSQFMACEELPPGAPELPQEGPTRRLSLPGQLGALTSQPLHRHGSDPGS

[10] = Oral bioavailability in cynomolgus monkey 1 mg/kg; assay type: ADME, organism-based, Macaca fascicularis; conditions: in vivo
[11] = target: Sphingosine 1-phosphate receptor 2 (Homo sapiens) (UniProt O95136); assay: Agonist activity at human S1P2R expressed in CHO cells by Ca(2+) mobilization assay; assay type: functional, cell-based
Sphingosine 1-phosphate receptor 2 (Homo sapiens), sequence (O95136 whole entry): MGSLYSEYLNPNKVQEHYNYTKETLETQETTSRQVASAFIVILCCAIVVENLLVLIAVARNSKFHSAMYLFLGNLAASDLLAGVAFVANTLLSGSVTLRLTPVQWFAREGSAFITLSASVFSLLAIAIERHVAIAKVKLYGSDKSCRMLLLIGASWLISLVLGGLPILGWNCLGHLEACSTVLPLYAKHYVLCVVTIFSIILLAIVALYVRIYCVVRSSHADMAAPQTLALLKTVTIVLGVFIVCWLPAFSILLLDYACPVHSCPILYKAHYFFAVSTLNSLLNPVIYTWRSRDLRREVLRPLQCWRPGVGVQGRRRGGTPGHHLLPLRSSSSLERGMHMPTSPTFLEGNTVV

[12] = Volume of distribution at steady state in cynomolgus monkey at 1 mg/kg, iv or 1 mg/kg, po; assay type: ADME, organism-based, Macaca fascicularis; conditions: in vivo, read-out: Vdss
[13] = Half life in cynomolgus monkey at 1 mg/kg, iv or 1 mg/kg, po; assay type: ADME, organism-based, Macaca fascicularis; conditions: in vivo
[14] = Mean residence time in cynomolgus monkey at 1 mg/kg, iv or 1 mg/kg, po; assay type: ADME, organism-based, Macaca fascicularis; conditions: in vivo
Rattus norvegicus [15] = assay: Lymphopenic activity in Lewis rat assessed as reduction in blood lymphocyte counts at 0.1 mg/kg, po administered as single dose measured 24 hrs post dose; assay type: functional
Rattus norvegicus [16] = assay: Reduction of disease score in experimental autoimmune encephalitis Lewis rat model of multiple sclerosis at 20 ug/day, po administered at the time of immunization with guinea pig myelin basic protein
Rattus norvegicus [17] = assay: Toxicity in telemetered Sprague-Dawley rat assessed as change in mean arterial pressure at 10 mg/kg, po; assay type: organism-based, Artery; parameters: dose 10 mg/kg, route oral; conditions: in vivo
[18] = Half life in Sprague-Dawley rat at 1 mg/kg, iv or 2 mg/kg, po; assay type: ADME, organism-based; conditions: in vivo
[19] = Clearance in Beagle dog at 1 mg/kg, iv or 1 mg/kg, po; assay type: ADME, organism-based, Canis lupus familiaris; conditions: in vivo
[20] = Mutagenic activity in Salmonella Typhimurium by Ames assay; assay type: toxicity; conditions: salmonella enterica subsp. enterica serovar typhimurium
[21] = Oral bioavailability in Sprague-Dawley rat 2 mg/kg; assay type: ADME, organism-based; conditions: in vivo
[22] = Volume of distribution at steady state in Sprague-Dawley rat at 1 mg/kg, iv or 2 mg/kg, po; assay type: ADME, organism-based; conditions: in vivo, read-out: Vdss
Rattus norvegicus [23] = assay: Lymphopenic activity in orally dosed Lewis rat assessed as reduction in blood lymphocyte counts measured 24 hrs post dose; assay type: functional, organism-based
[24] = Mean residence time in Sprague-Dawley rat at 1 mg/kg, iv or 2 mg/kg, po; assay type: ADME, organism-based; conditions: in vivo
Rattus norvegicus [25] = assay: Reduction of disease score in experimental autoimmune encephalitis Lewis rat model of multiple sclerosis at 2 ug/day, po administered at the time of immunization with guinea pig myelin basic protein
Rattus norvegicus [26] = assay: Induction of delay in onset of disease in experimental autoimmune encephalitis Lewis rat model of multiple sclerosis at 20 ug/day, po administered at the time of immunization with guinea pig myelin basic protein
[27] = Half life in Beagle dog at 1 mg/kg, iv or 1 mg/kg, po; assay type: ADME, organism-based, Canis lupus familiaris; conditions: in vivo
Rattus norvegicus [28] = assay: Lymphopenic activity in Lewis rat assessed as reduction in blood lymphocyte counts at 0.03 mg/kg, po administered as single dose measured 24 hrs post dose; assay type: functional
[29] = Inhibition of Cytochrome P450; assay type: ADME
[30] = target: T3, Sphingosine 1-phosphate receptor 5; assay: Agonist activity at human S1P5R expressed in CHO cells by Ca(2+) mobilization assay relative to control; assay type: functional, cell-based
[31] = Clearance in Sprague-Dawley rat at 1 mg/kg, iv or 2 mg/kg, po; assay type: ADME, organism-based; conditions: in vivo
[32] = Oral bioavailability in Beagle dog 1 mg/kg; assay type: ADME, organism-based, Canis lupus familiaris; conditions: in vivo
[33] = Clearance in cynomolgus monkey at 1 mg/kg, iv or 1 mg/kg, po; assay type: ADME, organism-based, Macaca fascicularis; conditions: in vivo
[34] = Mean residence time in Beagle dog at 1 mg/kg, iv or 1 mg/kg, po; assay type: ADME, organism-based, Canis lupus familiaris; conditions: in vivo
Rattus norvegicus [35] = assay: Lymphopenic activity in Lewis rat assessed as reduction in blood lymphocyte counts at 1 mg/kg, po administered as single dose measured 24 hrs post dose; assay type: functional, organism-based; parameters: dose 1 mg/kg
[36] = target: T1, Sphingosine 1-phosphate receptor 3; assay: Agonist activity at human S1P3R expressed in CHO cells at 2.5 uM by Ca(2+) mobilization assay relative to S1P; assay type: functional, cell-based

SMILES: O=C(O)C1CN(Cc2ccc(-c3nc4ccc(Cc5ccccc5)nc4s3)c(F)c2)C1
Activity [1]: 94%
pEC50 [2]: 6.70
pEC50 [3]: 6.32
Efficacy [4]: 92%

SMILES: O=C(O)C1CN(Cc2ccc(-c3nc4ccc(C5(c6ccccc6)CC5)nc4s3)c(F)c2)C1
pEC50 [5]: 7.54
Activity [6]: inactive
Activity [1]: 26%
Activity (Rattus norvegicus [7]): Non-toxic
Vd [8]: 1.2 L/kg
inhibition (INH) [9]: Not Active
bioavailability [10]: 34%
Activity [11]: inactive
Vd [12]: 2.3 L/kg
half-life [13]: 1440 min
MRT [14]: 4.7 h
inhibition in vivo at 0.1 mg/kg (Rattus norvegicus [15]): 65%
Activity (Rattus norvegicus [16]): Active
Activity (Rattus norvegicus [17]): Non-toxic
half-life [18]: 354 min
clearance [19]: 1.18 mL/min/kg
Activity [20]: Non-toxic
bioavailability [21]: 64%
Vd [22]: 1.8 L/kg
inhibition (Rattus norvegicus [23]): Dose-dependent effect
Efficacy [4]: 98%
MRT [24]: 10 h
Activity (Rattus norvegicus [25]): inactive
Activity (Rattus norvegicus [26]): Active
half-life [27]: 2280 min
inhibition in vivo at 0.03 mg/kg (Rattus norvegicus [28]): 45%
inhibition (INH) [29]: Not Active
Efficacy [30]: 50%
clearance [31]: 3 mL/min/kg
bioavailability [32]: 41%
clearance [33]: 8.33 mL/min/kg
MRT [34]: 17 h

SMILES: O=C(O)C1CN(Cc2ccc(-c3nc4cc(Cc5ccccc5)ccc4s3)c(F)c2)C1
Activity [1]: 24%
Efficacy [4]: 102%
inhibition (Rattus norvegicus [35]): Active

SMILES: O=C(O)C1CN(Cc2ccc(-c3nc4cc(Cc5ccccc5)ncc4s3)c(F)c2)C1
pEC50 [2]: 6.37
pEC50 [3]: < 4.60
Efficacy [4]: 115%

SMILES: C[C@@H](c1ccccc1)c1ccc2nc(-c3ccc(CN4CC(C(=O)O)C4)cc3F)sc2n1
Activity [1]: 44%
pEC50 [2]: 7.46
pEC50 [3]: 6.06
Efficacy [4]: 99%

SMILES: C[C@H](c1ccccc1)c1ccc2nc(-c3ccc(CN4CC(C(=O)O)C4)cc3F)sc2n1
Activity [1]: 45%
pEC50 [2]: 7.42
pEC50 [3]: 6.00
Efficacy [4]: 87%

SMILES: O=C(O)C1CN(Cc2ccc(-c3nc4ccc(Cc5ccccc5)cc4s3)c(F)c2)C1
Activity [1]: 50%
pEC50 [2]: 6.66
pEC50 [3]: 5.46

SMILES: O=C(O)C1CN(Cc2ccc(-c3nc4ncc(Cc5ccccc5)cc4s3)c(F)c2)C1
pEC50 [2]: 5.80
pEC50 [3]: < 4.60
Efficacy [4]: 75%

Further lines, results first:

pEC50 [2]: 7.59
Efficacy [36]: 12%
Efficacy [4]: 76%
SMILES: O=C(O)C1CN(Cc2ccc(-c3nc4ccc(C5(c6ccccc6)CCCC5)nc4s3)c(F)c2)C1

Activity [1]: 56%
pEC50 [2]: 7.42
pEC50 [3]: 5.33
Efficacy [4]: 93%
SMILES: O=C(O)C1CN(Cc2ccc(-c3nc4ccc(C5(c6ccccc6)CC5)cc4s3)c(F)c2)C1

Activity [1]: 68%
pEC50 [2]: 6.92
pEC50 [3]: 5.88
Efficacy [4]: 124%
SMILES: O=C(O)C1CN(Cc2ccc(-c3nc4ccc(C5(c6ccccc6)CCC5)nc4s3)c(F)c2)C1

Activity [1]: 64%
pEC50 [2]: 5.40
pEC50 [3]: 5.26
Efficacy [4]: 77%
SMILES: O=C(O)C1CN(Cc2ccc(-c3nc4cnc(Cc5ccccc5)cc4s3)c(F)c2)C1

Activity [1]: 63%
pEC50 [2]: 6.84
pEC50 [3]: 5.00
Efficacy [4]: 106%
SMILES: O=C(O)C1CN(Cc2ccc(-c3nc4nc(Cc5ccccc5)ccc4s3)c(F)c2)C1

Activity [1]: 36%
pEC50 [2]: 6.86
pEC50 [3]: 5.54
Efficacy [4]: 125%
SMILES: O=C(O)C1CN(Cc2ccc(-c3nc4cc(Cc5ccccc5)cnc4s3)c(F)c2)C1

Activity [1]: 64%
pEC50 [2]: 7.48
pEC50 [3]: 5.60
Efficacy [4]: 103%
SMILES: CC(C)(c1ccccc1)c1ccc2nc(-c3ccc(CN4CC(C(=O)O)C4)cc3F)sc2n1

Activity [1]: 41%
pEC50 [2]: 7.48
pEC50 [3]: 6.08
Efficacy [4]: 108%
SMILES: O=C(O)C1CN(Cc2ccc(-c3nc4ccc(C5(c6ccccc6)CCCCC5)nc4s3)c(F)c2)C1

Source: ChEMBL document CHEMBL1649108, “Discovery of AMG 369, a Thiazolo[5,4-b]pyridine Agonist of S1P1 and S1P5” (ACS Med Chem Lett, 2011)
